Source: patent US6933302B2, “Nitrogen-based homo-camptothecin derivatives” (California Pacific Medical Center, priority 2002, dated 2005)

Test system: VM46 cells
Test: Cell colony formation assay
Type: cell-based
Conditions: 72 hours drug incubation at 37° C., colonies counted after 8 days
Protocol: This example provides directions for growing cells and testing compounds of the invention for their effect on the growth of the cells. All cells can be purchased from DCTDC Tumor Repository, NCI, NIH.
Cell Colony Formation Assay
Five hundred cells (VM46) are plated in 60 mm Petri dishes containing 2.7 ml of medium (modified McCoy's 5a medium containing 10% fetal bovine serum and 100 units/ml penicillin and […]). The cells are incubated in a CO2 incubator at 37° C. for 5 hours for attachment to the bottom of Petri dishes. Drugs are made fresh in medium at ten times the final concentration, and then 0.3 ml of this stock solution is added to the 2.7 ml of medium in the dish. The cells are then incubated with drugs for 72 hours at 37° C. At the end of the incubation the drug-containing media are decanted, the dishes are rinsed with 4 ml of Hank's Balance Salt Solution (HBSS), 5 ml of fresh medium is added, and the dishes are returned to the incubator for colony formation. The cell colonies are counted using colony counter after incubation for 8 days for VM46 cells. Cell survival (%) is calculated .
Values of ID50 (the drug concentration producing 50% inhibition of colony formation) may be determined for each tested compound. Results are shown in Table I for hCPT as a compound of this invention taught in Example 16.

Compound	Value of ID50 (drug concentration producing 50% inhibition of colony formation) [NM]
CCC1(OC(=O)CCN2CCCCC2)CC(=O)OCc2c1cc1n(c2=O)Cc2cc3ccccc3nc2-1 (centres unmarked) [Example 021219, Homocamptothecin-20-O ester of 1-piperidine Propionic Acid]	3.5
CC[C@@]1(O)CC(=O)OCc2c1cc1n(c2=O)Cc2cc3ccccc3nc2-1 [hCPT, homo-camptothecin]	4
